From the supplement of paper PMC4314810 come the findings set out here.

± gives the standard deviation of the averaged measurements.

This data set deals with MCF7. The experiment in a line: HRG-induced Akt activation (dPAkt = log2 pAkt/Akt HRG-stimulated minus log2 pAkt/Akt basal) (log2 ratio difference); higher = stronger HRG-induced Akt(T308) phosphorylation. As to conditions: miRNA mimic concentration 10 nM; time after transfection 72 h; heregulin 10 ng/ml; stimulation time 1 h. Summed up: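 MCF7 cells were plated […] in 96-well plates and transfected in two biological replicates with a library of 879 miRNA mimics (10 nM final) using Lipofectamine RNAiMax; 72 h later they were stimulated for 1 h with 10 ng/ml heregulin-beta1 or left unstimulated. After fixation in 4% PFA, phospho-Akt(T308) and total Akt were measured by In-Cell Western on an Odyssey, with signals corrected for column-wise fixation decay. Heregulin-induced Akt activation is the stimulated minus unstimulated value of the log ratio of phospho-Akt to total Akt, averaged over replicates. That log ratio is log2(pAkt/Akt).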
Take ACCUUGCCUUGCUGCCCGGGCC: the “HRG-induced Akt activation (log2)” value turned out to be 1.06 ± 0.23.

In the case of ACGCCCUUCCCCCCCUUCUUCA, the “HRG-induced Akt activation (log2)” value was determined as 1.22 ± 0.47.

Turning to ACGGAUGUUUGAGCAUGUGCUA, the “HRG-induced Akt activation (log2)” value came out at 2.15 ± 0.13.

With ACGGGUUAGGCUCUUGGGAGCU, the “HRG-induced Akt activation (log2)” value was 1.38 ± 0.043.

In the case of ACGGUGCUGGAUGUGGCCUUU, the “HRG-induced Akt activation (log2)” value came out at 1.92 ± 0.082.

Take ACGUUGGCUCUGGUGGUG: the “HRG-induced Akt activation (log2)” value came to 1.17 ± 0.014.

For ACUCAAAACCCUUCAGUGACUU, the “HRG-induced Akt activation (log2)” value is 1.79 ± 0.18.

As for ACUCAAAAUGGGGGCGCUUUCC, the “HRG-induced Akt activation (log2)” value came to 1.51 ± 0.055.

For ACUCAAACUGUGGGGGCACU, the “HRG-induced Akt activation (log2)” value came to 0.915 ± 0.061.

For ACUCCAGCCCCACAGCCUCAGC, the “HRG-induced Akt activation (log2)” value is 1.84 ± 0.05.

In the case of ACUCCAUUUGUUUUGAUGAUGGA, the “HRG-induced Akt activation (log2)” value came to 1.19 ± 0.29.

As for ACUCGGCGUGGCGUCGGUCGUG, the “HRG-induced Akt activation (log2)” value worked out at 2.34 ± 0.17.

For the sequence ACUCUAGCUGCCAAAGGCGCU, the “HRG-induced Akt activation (log2)” value was determined as 1.02 ± 0.67.

On to ACUCUUUCCCUGUUGCACUAC, for which the “HRG-induced Akt activation (log2)” value stood at 1.677 ± 0.0095.

For ACUGAUUUCUUUUGGUGUUCAG, the “HRG-induced Akt activation (log2)” value came out at 1.47 ± 0.082.

For the sequence ACUGCAGUGAAGGCACUUGUAG, the “HRG-induced Akt activation (log2)” value turned out to be 1.646 ± 0.0061.

Take ACUGCAUUAUGAGCACUUAAAG: the “HRG-induced Akt activation (log2)” value was determined as 1.66 ± 0.41.

Regarding ACUGCCCCAGGUGCUGCUGG, the “HRG-induced Akt activation (log2)” value came to 1.25 ± 0.16.

In the case of ACUGCCCUAAGUGCUCCUUCUGG, the “HRG-induced Akt activation (log2)” value was determined as 1.72 ± 0.1.

For the sequence ACUGCUGAGCUAGCACUUCCCG, the “HRG-induced Akt activation (log2)” value came to 1.04 ± 0.26.

As to ACUGGACUUAGGGUCAGAAGGC, the “HRG-induced Akt activation (log2)” value turned out to be 2.01 ± 0.38.

ACUGGACUUGGAGUCAGAAGG: the “HRG-induced Akt activation (log2)” value was found to be 1.47 ± 0.21.

As for ACUGGCUAGGGAAAAUGAUUGGAU, the “HRG-induced Akt activation (log2)” value turned out to be 1.24 ± 0.61.

As for ACUGGGGGCUUUCGGGCUCUGCGU, the “HRG-induced Akt activation (log2)” value was determined as 1.6 ± 0.11.

Turning to ACUGUAGUAUGGGCACUUCCAG, the “HRG-induced Akt activation (log2)” value amounted to 1.46 ± 0.29.

Consider ACUGUUGCUAAUAUGCAACUCU, for which the “HRG-induced Akt activation (log2)” value turned out to be 0.931 ± 0.72.

As for ACUUAAACGUGGAUGUACUUGCU, the “HRG-induced Akt activation (log2)” value stood at 1.93 ± 0.26.

For ACUUACAGACAAGAGCCUUGCUC, the “HRG-induced Akt activation (log2)” value was 1.68 ± 0.16.

ACUUCACCUGGUCCACUAGCCGU: the “HRG-induced Akt activation (log2)” value amounted to 1.3 ± 0.29.

Turning to ACUUGGGCACUGAAACAAUGUCC, the “HRG-induced Akt activation (log2)” value was determined as 1.5 ± 0.025.

Consider ACUUGUAUGCUAGCUCAGGUAG, for which the “HRG-induced Akt activation (log2)” value turned out to be 1.13 ± 0.012.

For ACUUUAACAUGGAAGUGCUUUC, the “HRG-induced Akt activation (log2)” value was determined as 1.17 ± 0.09.

For the sequence ACUUUAACAUGGAGGCACUUGC, the “HRG-induced Akt activation (log2)” value amounted to 1.41 ± 0.029.

In the case of AGAAGGAAAUUGAAUUCAUUUA, the “HRG-induced Akt activation (log2)” value came to 2.39 ± 0.29.

As to AGAAUUGUGGCUGGACAUCUGU, the “HRG-induced Akt activation (log2)” value was 1.55 ± 0.022.

Regarding AGACCAUGGGUUCUCAUUGU, the “HRG-induced Akt activation (log2)” value came to 1.18 ± 0.43.

As for AGACCCUGGUCUGCACUCUAUC, the “HRG-induced Akt activation (log2)” value was found to be 1.82 ± 0.41.

In the case of AGACCUGGCCCAGACCUCAGC, the “HRG-induced Akt activation (log2)” value is 1.51 ± 0.39.

Turning to AGACUUCCCAUUUGAAGGUGGC, the “HRG-induced Akt activation (log2)” value was 1.52 ± 0.18.

Take AGAGAAGAAGAUCAGCCUGCA: the “HRG-induced Akt activation (log2)” value is 1.08 ± 0.5.

For AGAGCUUAGCUGAUUGGUGAAC, the “HRG-induced Akt activation (log2)” value came to 1.58 ± 0.27.

As for AGAGGAUACCCUUUGUAUGUU, the “HRG-induced Akt activation (log2)” value was determined as 1.23 ± 0.53.

Take AGAGGCUGGCCGUGAUGAAUUC: the “HRG-induced Akt activation (log2)” value is 1.48 ± 0.024.

For AGAGGUAGUAGGUUGCAUAGUU, the “HRG-induced Akt activation (log2)” value turned out to be 1.08 ± 0.21.

In the case of AGAGGUAUAGGGCAUGGGAA, the “HRG-induced Akt activation (log2)” value is 1.88 ± 0.23.

Take AGAGGUUGCCCUUGGUGAAUUC: the “HRG-induced Akt activation (log2)” value came out at 1.6 ± 0.19.

Turning to AGAGUCUUGUGAUGUCUUGC, the “HRG-induced Akt activation (log2)” value turned out to be 2.38 ± 0.067.

As for AGAGUUGAGUCUGGACGUCCCG, the “HRG-induced Akt activation (log2)” value was found to be 1.98 ± 0.027.

For the sequence AGAUCAGAAGGUGAUUGUGGCU, the “HRG-induced Akt activation (log2)” value was 1.56 ± 0.3.

On to AGAUCGACCGUGUUAUAUUCGC, for which the “HRG-induced Akt activation (log2)” value turned out to be 2.02 ± 0.14.

As for AGCAGAAGCAGGGAGGUUCUCCCA, the “HRG-induced Akt activation (log2)” value came out at 1.55 ± 0.054.

On to AGCAGCAUUGUACAGGGCUAUCA, for which the “HRG-induced Akt activation (log2)” value was determined as 1.35 ± 0.26.

For the sequence AGCAGCAUUGUACAGGGCUAUGA, the “HRG-induced Akt activation (log2)” value was 1.45 ± 0.015.

Take AGCCUGAUUAAACACAUGCUCUGA: the “HRG-induced Akt activation (log2)” value turned out to be 1.23 ± 0.11.

For the sequence AGCCUGGAAGCUGGAGCCUGCAGU, the “HRG-induced Akt activation (log2)” value worked out at 1.35 ± 0.14.

Take AGCUACAUCUGGCUACUGGGU: the “HRG-induced Akt activation (log2)” value came to 1.48 ± 0.25.

In the case of AGCUACAUUGUCUGCUGGGUUUC, the “HRG-induced Akt activation (log2)” value was 1.72 ± 0.17.

Turning to AGCUCGGUCUGAGGCCCCUCAGU, the “HRG-induced Akt activation (log2)” value worked out at 0.753 ± 0.54.

As for AGCUGGUGUUGUGAAUCAGGCCG, the “HRG-induced Akt activation (log2)” value was 1.87 ± 0.075.

For the sequence AGCUGUCUGAAAAUGUCUU, the “HRG-induced Akt activation (log2)” value was determined as 1.08 ± 0.3.

Take AGCUUCUUUACAGUGCUGCCUUG: the “HRG-induced Akt activation (log2)” value turned out to be 1.68 ± 0.2.

For the sequence AGGAAGCCCUGGAGGGGCUGGAG, the “HRG-induced Akt activation (log2)” value amounted to 1.1 ± 0.6.

On to AGGAAUGUUCCUUCUUUGCC, for which the “HRG-induced Akt activation (log2)” value came out at 1.91 ± 0.039.

On to AGGACCUGCGGGACAAGAUUCUU, for which the “HRG-induced Akt activation (log2)” value was found to be 1.6 ± 0.091.

Consider AGGAGGCAGCGCUCUCAGGAC, for which the “HRG-induced Akt activation (log2)” value was determined as 1.54 ± 0.61.

As for AGGAUGAGCAAAGAAAGUAGAUU, the “HRG-induced Akt activation (log2)” value amounted to 1.13 ± 0.25.

In the case of AGGCAAGAUGCUGGCAUAGCU, the “HRG-induced Akt activation (log2)” value turned out to be 1.18 ± 0.13.

Take AGGCACCAGCCAGGCAUUGCUCAGC: the “HRG-induced Akt activation (log2)” value was 1.51 ± 0.2.

For AGGCACGGUGUCAGCAGGC, the “HRG-induced Akt activation (log2)” value was found to be 1.2 ± 0.26.

Turning to AGGCAGCGGGGUGUAGUGGAUA, the “HRG-induced Akt activation (log2)” value turned out to be 1.58 ± 0.27.

Take AGGCAGUGUAGUUAGCUGAUUGC: the “HRG-induced Akt activation (log2)” value came to 2.22 ± 0.041.

For the sequence AGGCAGUGUAUUGUUAGCUGGC, the “HRG-induced Akt activation (log2)” value stood at 1.91 ± 0.036.

Turning to AGGCAUUGACUUCUCACUAGCU, the “HRG-induced Akt activation (log2)” value was determined as 1.66 ± 0.32.

With AGGCGGAGACUUGGGCAAUUG, the “HRG-induced Akt activation (log2)” value amounted to 2.43 ± 0.29.

AGGCGGGGCGCCGCGGGACCGC: the “HRG-induced Akt activation (log2)” value turned out to be 1.22 ± 0.12.

As to AGGCUGCGGAAUUCAGGAC, the “HRG-induced Akt activation (log2)” value turned out to be 1.56 ± 0.23.

Take AGGGACGGGACGCGGUGCAGUG: the “HRG-induced Akt activation (log2)” value is 1.15 ± 0.12.

For AGGGACUUUCAGGGGCAGCUGU, the “HRG-induced Akt activation (log2)” value is 1.48 ± 0.18.

With AGGGAGGGACGGGGGCUGUGC, the “HRG-induced Akt activation (log2)” value was determined as 1.89 ± 0.16.

With AGGGAUCGCGGGCGGGUGGCGGCCU, the “HRG-induced Akt activation (log2)” value turned out to be 1.03 ± 0.13.

On to AGGGCCCCCCCUCAAUCCUGU, for which the “HRG-induced Akt activation (log2)” value was 1.95 ± 0.39.

As for AGGGCUUAGCUGCUUGUGAGCA, the “HRG-induced Akt activation (log2)” value came out at 1.75 ± 0.56.

Turning to AGGGGCUGGCUUUCCUCUGGUC, the “HRG-induced Akt activation (log2)” value was 1.57 ± 0.17.

Consider AGGGGGAAAGUUCUAUAGUCC, for which the “HRG-induced Akt activation (log2)” value came out at 1.2 ± 0.07.

Take AGGGGUGCUAUCUGUGAUUGA: the “HRG-induced Akt activation (log2)” value came out at 1.68 ± 0.19.

Take AGGGGUGGUGUUGGGACAGCUCCGU: the “HRG-induced Akt activation (log2)” value came out at 2.91 ± 0.23.

As to AGGGUAAGCUGAACCUCUGAU, the “HRG-induced Akt activation (log2)” value was 1.51 ± 0.17.

As to AGGGUGUUUCUCUCAUCUCU, the “HRG-induced Akt activation (log2)” value turned out to be 2.04 ± 0.21.

AGGUGGUCCGUGGCGCGUUCGC: the “HRG-induced Akt activation (log2)” value came out at 2.93 ± 0.32.
